Measured values from the NIST ThermoML archive (doi:10.1016/j.jct.2012.02.028).

Settings: 101.33 kPa, Crystal, Vacuum adiabatic calorimetry

O=C([O-])[O-].[Zn+2] [zinc(II) carbonate]
Settings	molar entropy [J/K/mol]
5 K	0.00258
10 K	0.02006
15 K	0.07123
20 K	0.1881
25 K	0.41
30 K	0.7694
35 K	1.284
40 K	1.959
45 K	2.788
50 K	3.759
55 K	4.862
60 K	6.081
65 K	7.403
70 K	8.815
75 K	10.3
80 K	11.85
85 K	13.45
90 K	15.1
95 K	16.78
100 K	18.49
105 K	20.21
110 K	21.95
115 K	23.7
120 K	25.45
130 K	28.95
140 K	32.44
150 K	35.9
160 K	39.32
170 K	42.69
180 K	46.02
190 K	49.28
200 K	52.5
210 K	55.65
220 K	58.75
230 K	61.8
240 K	64.79
250 K	67.73
260 K	70.62
270 K	73.48
273.15 K	74.37
280 K	76.29
290 K	79.06
298.15 K	81.28
300 K	81.78
310 K	84.45
320 K	87.09
